Source: ChEMBL document CHEMBL4765285, “Discovery of orally active indirubin-3'-oxime derivatives as potent type 1 FLT3 inhibitors for acute myeloid leukemia” (Eur J Med Chem, 2020)
Active and inactive are the calls of the source. The rule behind the calls is not given here.

Experiments:
MV4-11 [1] = experiment: cells; settings: Homo sapiens, MV4-11, 72 h
Description: Antiproliferative activity against human MV4-11 cells assessed as cell growth inhibition after 72 hrs by WST assay

[2] = target: T1, Receptor-type tyrosine-protein kinase FLT3 (Homo sapiens, UniProt P36888)
T1 sequence (P36888 whole entry): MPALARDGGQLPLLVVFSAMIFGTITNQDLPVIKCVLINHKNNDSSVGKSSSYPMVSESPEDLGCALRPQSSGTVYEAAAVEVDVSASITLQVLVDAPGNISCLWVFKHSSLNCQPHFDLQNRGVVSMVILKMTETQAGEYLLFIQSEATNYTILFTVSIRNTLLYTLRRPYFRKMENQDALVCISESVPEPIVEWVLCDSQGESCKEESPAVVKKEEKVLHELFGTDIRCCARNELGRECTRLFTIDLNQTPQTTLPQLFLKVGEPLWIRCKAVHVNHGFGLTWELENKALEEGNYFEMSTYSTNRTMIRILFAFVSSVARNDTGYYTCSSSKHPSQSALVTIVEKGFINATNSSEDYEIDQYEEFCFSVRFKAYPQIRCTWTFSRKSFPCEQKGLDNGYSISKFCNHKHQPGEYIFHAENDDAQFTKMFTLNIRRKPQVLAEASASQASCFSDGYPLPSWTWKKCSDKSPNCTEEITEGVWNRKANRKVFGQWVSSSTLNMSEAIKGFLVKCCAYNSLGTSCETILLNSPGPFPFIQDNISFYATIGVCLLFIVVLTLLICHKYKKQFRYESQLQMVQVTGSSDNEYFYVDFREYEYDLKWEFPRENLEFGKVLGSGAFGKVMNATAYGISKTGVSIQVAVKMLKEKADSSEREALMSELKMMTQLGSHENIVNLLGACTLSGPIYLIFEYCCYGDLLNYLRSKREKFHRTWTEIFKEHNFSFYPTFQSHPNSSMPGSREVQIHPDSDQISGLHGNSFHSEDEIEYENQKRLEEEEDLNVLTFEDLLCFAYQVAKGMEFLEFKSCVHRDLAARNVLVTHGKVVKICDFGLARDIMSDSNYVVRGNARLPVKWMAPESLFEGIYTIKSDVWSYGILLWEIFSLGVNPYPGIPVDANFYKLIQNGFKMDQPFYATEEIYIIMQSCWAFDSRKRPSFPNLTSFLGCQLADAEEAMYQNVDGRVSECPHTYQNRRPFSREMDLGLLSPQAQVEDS
Description: Inhibition of recombinant His-tagged human FLT3 expressed in baculovirus expression system using peptide substrate incubated for 30 mins in presence of ATP by HTRF assay

[3] = AUClast in ICR mouse at 10 mg/kg, iv or po measured up to 1440 mins by LC-MS/MS analysis; assay type: ADME, organism-based; set-up: dose 10 mg/kg, time <=1440; settings: in vivo
MV4-11 [4] = experiment: Antitumor activity against human MV4-11 cells xenografted in BALB/c nu/nu mouse assessed as reduction in tumor volume at 20 mg/kg, po administered once daily for 21 days measured twice daily during compound dosing; assay type: functional, organism-based; settings: time 21.0 day
[5] = Oral bioavailability in ICR mouse at 10 mg/kg measured up to 1440 mins by LC-MS/MS analysis; assay type: ADME, organism-based; settings: in vivo
[6] = Cmax in ICR mouse at 10 mg/kg, iv or po measured up to 1440 mins by LC-MS/MS analysis; assay type: ADME, organism-based; set-up: dose 10 mg/kg, time <=1440; settings: in vivo
[7] = Toxicity in BALB/c nu/nu mouse xenografted with human MV4-11 cells assessed as body weight loss at 20 mg/kg, po administered for 21 days; assay type: organism-based; settings: in vivo, 504 h, time 21 day
MV4-11 [8] = experiment: Antiproliferative activity against human MV4-11 cells assessed as growth inhibition after 72 hrs; assay type: functional
[9] = Clearance in ICR mouse at 10 mg/kg, iv or po measured up to 1440 mins by LC-MS/MS analysis; assay type: ADME, organism-based; settings: in vivo
[10] = Half-life in ICR mouse at 10 mg/kg, iv or po measured up to 1440 mins by LC-MS/MS analysis; assay type: ADME, organism-based; settings: in vivo
MOLM-14 [11] = experiment: cells; settings: Homo sapiens
Description: Antiproliferative activity against human MOLM14 cells harboring ITD/D835Y mutant assessed as cell growth inhibition by MTT assay

MOLM-14 [12] = experiment: cells; settings: Homo sapiens; remark: listed apart in the source
Description: Antiproliferative activity against human MOLM14 cells harboring ITD/F691L mutant assessed as cell growth inhibition by MTT assay

HepG2 = experiment: cells; settings: Homo sapiens
Description: Antiproliferative activity against human HepG2 cells assessed as cell growth inhibition by WST assay

MOLM-14 [13] = experiment: cells; settings: Homo sapiens; remark: listed apart in the source
Description: Antiproliferative activity against human MOLM14 cells harboring ITD mutant assessed as cell growth inhibition by MTT assay

K562 = experiment: Antiproliferative activity against human K562 cells assessed as cell growth inhibition by WST assay; assay type: functional
MV4-11 [14] = experiment: Antiproliferative activity against human MV4-11 cells assessed as cell growth inhibition by Celltiter-Glo luminescent assay; assay type: functional
MOLM-14 [15] = experiment: cells; settings: Homo sapiens; remark: listed apart in the source
Description: Antiproliferative activity against wild type human MOLM14 cells assessed as cell growth inhibition by MTT assay

HCT-116 = experiment: cells; settings: Homo sapiens, HCT-116, read-out: INH
Description: Antiproliferative activity against human HCT-116 cells assessed as cell growth inhibition at 1 uM by WST assay relative to control

A549 = experiment: cells; settings: Homo sapiens, A549, read-out: INH
Description: Antiproliferative activity against human A549 cells assessed as cell growth inhibition at 1 uM by WST assay relative to control

SK-OV-3 = experiment: cells; settings: Homo sapiens, SK-OV-3, read-out: INH
Description: Antiproliferative activity against human SK-OV-3 cells assessed as cell growth inhibition at 1 uM by WST assay relative to control

PC-3 = experiment: cells; settings: Homo sapiens, PC-3, read-out: INH
Description: Antiproliferative activity against human PC3 cells assessed as cell growth inhibition at 1 uM by WST assay relative to control

MDA-MB-231 = experiment: cells; settings: Homo sapiens, MDA-MB-231, read-out: INH
Description: Antiproliferative activity against human MDA-MB-231 cells assessed as cell growth inhibition at 1 uM by WST assay relative to control

O=C1Nc2ccc(F)cc2/C1=C1/Nc2ccccc2/C1=N\OCCNC1CCNCC1
GI50 (MV4-11 [1]): 11.9 nM | IC50 [2]: 9.47 nM

O=C1Nc2ccc([N+](=O)[O-])cc2/C1=C1/Nc2ccc(O)cc2/C1=N\OCCN1CCOCC1
GI50 (MV4-11 [1]): 100 nM | IC50 [2]: 345 nM

CN1CCN(CCO/N=C2/C(=C3/C(=O)Nc4ccc(F)cc43)Nc3ccccc32)CC1
GI50 (MV4-11 [1]): 11.1 nM | IC50 [2]: 3.3 nM

O=C1Nc2ccc(F)cc2/C1=C1/Nc2ccc(F)cc2/C1=N\OCCN1CCCCC1
GI50 (MV4-11 [1]): 105 nM | IC50 [2]: 45 nM

O=C1Nc2ccc(F)cc2/C1=C1/Nc2ccccc2/C1=N\OCCN1CCCC1
GI50 (MV4-11 [1]): 212 nM | IC50 [2]: 257 nM

O=C1Nc2ccccc2/C1=C1/Nc2ccccc2/C1=N\OCCN1CCCCC1
GI50 (MV4-11 [1]): 138 nM | IC50 [2]: 128 nM

Cl.O=C1Nc2ccccc2/C1=C1/Nc2ccccc2/C1=N\OCCN1CCNCC1
AUC(0-t) at 24 h [3]: 1200 ng·h/mL | IC50 [2]: 2.7 nM | Activity (MV4-11 [4]): Active | bioavailability [5]: 51% | Cmax [6]: 69.7 ng/mL | Activity [7]: Non-Toxic

O=C1Nc2ccc(OC(F)(F)F)cc2/C1=C1/Nc2ccccc2/C1=N\OCCN1CCNCC1
GI50 (MV4-11 [1]): 17 nM | IC50 [2]: 40.2 nM

COC(=O)c1ccc2c(c1)/C(=C1/Nc3ccccc3/C1=N\OCCN1CCNCC1)C(=O)N2
GI50 (MV4-11 [8]): 1 nM | bioavailability [5]: 1.43%

O=C1Nc2ccc([N+](=O)[O-])cc2/C1=C1/Nc2ccc(O)cc2/C1=N\OCCBr
GI50 (MV4-11 [1]): 470 nM | IC50 [2]: 324 nM

CN1CCN(CCO/N=C2/C(=C3/C(=O)Nc4ccc(F)cc43)Nc3ccc(F)cc32)CC1
GI50 (MV4-11 [1]): 31.5 nM | IC50 [2]: 27 nM

Cl.NCCO/N=C1/C(=C2/C(=O)Nc3ccc([N+](=O)[O-])cc32)Nc2ccc(O)cc21
GI50 (MV4-11 [1]): 95.3 nM | IC50 [2]: 8.6 nM | bioavailability [5]: 0%

CN1CCN(CCO/N=C2/C(=C3/C(=O)Nc4ccccc43)Nc3ccccc32)CC1
GI50 (MV4-11 [1]): 54.8 nM | IC50 [2]: 9.29 nM

CN1CCN(CCO/N=C2/C(=C3/C(=O)Nc4ccc([N+](=O)[O-])cc43)Nc3ccc(O)cc32)CC1
GI50 (MV4-11 [1]): 50 nM | IC50 [2]: 18.9 nM

COc1ccc2c(c1)/C(=C1/Nc3ccccc3/C1=N\OCCN1CCN(C)CC1)C(=O)N2
GI50 (MV4-11 [1]): 20 nM | IC50 [2]: 2.1 nM

O=C1Nc2ccc(F)cc2/C1=C1/Nc2ccc(F)cc2/C1=N\OCCN1CCCC1
GI50 (MV4-11 [1]): 634 nM | IC50 [2]: 116 nM

Cl.O=C1Nc2ccc([N+](=O)[O-])cc2/C1=C1/Nc2ccccc2/C1=N\OCCN1CCNCC1
GI50 (MV4-11 [1]): 7.01 nM | clearance [9]: 108 mL/min/kg | IC50 [2]: 13.2 nM | bioavailability [5]: 1.33%

O=C1Nc2ccccc2/C1=C1/Nc2ccccc2/C1=N\OCCNC1CCNCC1
GI50 (MV4-11 [1]): 15.1 nM | IC50 [2]: 20.9 nM

O=C1Nc2ccc(F)cc2/C1=C1/Nc2ccccc2/C1=N\OCCN1CCCCC1
GI50 (MV4-11 [1]): 263 nM | IC50 [2]: 142 nM

Cl.O=C1Nc2ccc([N+](=O)[O-])cc2/C1=C1/Nc2ccc(O)cc2/C1=N\OCCN1CCNCC1
GI50 (MV4-11 [1]): 26.5 nM | clearance [9]: 70.4 mL/min/kg | IC50 [2]: 12.2 nM | bioavailability [5]: 0%

O=C1Nc2ccc([N+](=O)[O-])cc2/C1=C1/Nc2ccc(F)cc2/C1=N\OCCN1CCNCC1
GI50 (MV4-11 [1]): 10.2 nM | IC50 [2]: 27.6 nM

CN1CCN(CCO/N=C2/C(=C3/C(=O)Nc4ccc(OC(F)(F)F)cc43)Nc3ccccc32)CC1
GI50 (MV4-11 [1]): 7 nM | IC50 [2]: 5.62 nM

CN1CCN(CCO/N=C2/C(=C3/C(=O)Nc4ccc([N+](=O)[O-])cc43)Nc3ccc(F)cc32)CC1
GI50 (MV4-11 [1]): 118 nM | IC50 [2]: 31.2 nM

COc1ccc2c(c1)/C(=C1/Nc3ccccc3/C1=N\OCCN1CCNCC1)C(=O)N2
GI50 (MV4-11 [1]): 22 nM | IC50 [2]: 12.4 nM

O=C1Nc2ccc(F)cc2/C1=C1/Nc2ccc(F)cc2/C1=N\OCCN1CCOCC1
GI50 (MV4-11 [1]): 116 nM | IC50 [2]: 98.3 nM

O=C1Nc2ccc([N+](=O)[O-])cc2/C1=C1/Nc2ccc(O)cc2/C1=N\O
GI50 (MV4-11 [1]): 133 nM

Cl.O=C1Nc2ccc(F)cc2/C1=C1/Nc2ccc(F)cc2/C1=N\OCCN1CCNCC1
GI50 (MV4-11 [1]): 8.3 nM | clearance [9]: 28.1 mL/min/kg | IC50 [2]: 15.8 nM | bioavailability [5]: 16.7% | half-life [10]: 3.4 h

O=C1Nc2ccccc2/C1=C1/Nc2ccccc2/C1=N\OCCN1CCCC1
GI50 (MV4-11 [1]): 104 nM | IC50 [2]: 41.3 nM

Cl.O=C1Nc2ccc(F)cc2/C1=C1/Nc2ccc(F)cc2/C1=N\OCCNC1CCNCC1
GI50 (MV4-11 [1]): 8.47 nM | clearance [9]: 231 mL/min/kg | IC50 [2]: 11.6 nM | bioavailability [5]: 15.3% | half-life [10]: 9.2 h

CCc1nc(C(N)=O)c(Nc2ccc(N3CCC(N4CCN(C)CC4)CC3)c(OC)c2)nc1NC1CCOCC1 [GILTERITINIB]
GI50 (MOLM-14 [11]): 1.91 nM | GI50 (MOLM-14 [12]): 5.24 nM | GI50 (HepG2): 2200 nM | GI50 (MOLM-14 [13]): 3.29 nM | GI50 (K562): 1010 nM | GI50 (MV4-11 [14]): 0.9 nM | GI50 (MOLM-14 [15]): 4.94 nM | inhibition at 1 µM (HCT-116): 45.1% | inhibition at 1 µM (A549): 4.05% | inhibition at 1 µM (SK-OV-3): 23.3% | inhibition at 1 µM (PC-3): 41.8% | inhibition at 1 µM (MDA-MB-231): 42.1%
